Assays:
Experiment in all cases: Test B pre-/postemergence plant response
Format in all cases: in vivo
[1] = tested on: wheat (Triticum aestivum)
How it was run: (§1)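 Visual ratings on a 0–100 scale (100 = complete control) were made versus untreated controls 13–15 days after treatment in a greenhouse. Compounds in surfactant-containing non-phytotoxic solvent were applied preemergence to seeds in loam–sand blend or postemergence to 1- to 4-leaf plants (2–18 cm).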

[2] = tested on: goosegrass (Eleusine indica)
How it was run: as §1

[3] = tested on: lambsquarters (Chenopodium album)
How it was run: as §1

[4] = tested on: yellow nutsedge (Cyperus esculentus)
How it was run: as §1

[5] = tested on: pigweed (Amaranthus retroflexus)
How it was run: as §1

[6] = tested on: green foxtail (Setaria viridis)
How it was run: as §1

[7] = tested on: large crabgrass (Digitaria sanguinalis)
How it was run: as §1

[8] = tested on: woolly cupgrass (Eriochloa villosa)
How it was run: as §1

[9] = tested on: velvetleaf (Abutilon theophrasti)
How it was run: as §1

[10] = tested on: downy bromegrass (Bromus tectorum)
How it was run: as §1

kochia (Kochia scoparia) = tested on: kochia (Kochia scoparia)
How it was run: as §1

[11] = tested on: giant foxtail (Setaria faberii)
How it was run: as §1

[12] = tested on: johnsongrass (Sorghum halepense)
How it was run: as §1

[13] = 250 g ai/ha, Preemergence, 0 to 100 scale
[14] = Postemergence, 31 g ai/ha, scale 0 to 100 (0 no effect, 100 complete control)
[15] = Postemergence, 62 g ai/ha, scale 0 (no effect) to 100 (complete control), 13 to 15 days
[16] = Postemergence, 125 g ai/ha, visual rating after 13 to 15 days, scale 0 (no effect) to 100 (complete control)
[17] = Postemergence, 250 g ai/ha, scale 0 to 100
[18] = Preemergence, 31 g ai/ha, scale 0 to 100 (0 no effect, 100 complete control)
[19] = Preemergence, 62 g ai/ha, scale 0 to 100 (0 no effect, 100 complete control)
[20] = Preemergence, 125 g ai/ha, 0 to 100 scale
[21] = Preemergence, 0 is no effect, 100 is complete control, rated after 13 to 15 days, application rate of this section not shown

Which results are given for “3-cyclohexyl-5-[(2-hydroxy-6-oxo-1-cyclohexen-1-yl)carbonyl]-2-phenyl-4(3H)-pyrimidinone [Compound 128]”?
Plant response rating, Wheat [1, 13]: 5; Plant response rating, Wheat [1, 14]: 30; Plant response rating, Wheat [1, 15]: 35; Plant response rating, Wheat [1, 16]: 40; Wheat plant response rating [1, 17]: 45; Plant response rating, Wheat [1, 18]: 0; Plant response rating, Wheat [1, 19]: 0; Wheat plant response rating [1, 20]: 0; Plant response rating, Goosegrass [2, 13]: 100; Plant response rating, Goosegrass [2, 14]: 65; Plant response rating, Goosegrass [2, 15]: 85; Plant response rating, Goosegrass [2, 16]: 95; Goosegrass plant response rating [2, 17]: 98; Plant response rating, Goosegrass [2, 18]: 70; Goosegrass plant response rating [2, 20]: 100; Plant response rating, Lambsquarters [3, 13]: 100; Plant response rating, Lambsquarters [3, 14]: 50; Plant response rating, Lambsquarters [3, 15]: 70; Plant response rating, Lambsquarters [3, 16]: 95; Lambsquarters plant response rating [3, 17]: 98; Plant response rating, Lambsquarters [3, 18]: 100; Plant response rating, Lambsquarters [3, 19]: 100; Lambsquarters plant response rating [3, 20]: 100; Plant response rating, Nutsedge, Yellow [4, 13]: 90; Plant response rating, Nutsedge, Yellow [4, 14]: 25; Plant response rating, Nutsedge, Yellow [4, 15]: 35; Plant response rating, Nutsedge, Yellow [4, 16]: 50; Nutsedge, Yellow plant response rating [4, 17]: 60; Plant response rating, Nutsedge, Yellow [4, 18]: 0; Plant response rating, Nutsedge, Yellow [4, 19]: 55; Nutsedge, Yellow plant response rating [4, 20]: 85; Plant response rating, Pigweed [5, 13]: 100; Plant response rating, Pigweed [5, 14]: 65; Plant response rating, Pigweed [5, 15]: 80; Plant response rating, Pigweed [5, 16]: 85; Pigweed plant response rating [5, 17]: 98; Plant response rating, Pigweed [5, 18]: 100; Plant response rating, Pigweed [5, 19]: 100; Pigweed plant response rating [5, 20]: 100; Plant response rating, Foxtail, Green [6, 13]: 65; Plant response rating, Foxtail, Green [6, 14]: 60; Plant response rating, Foxtail, Green [6, 15]: 60; Plant response rating, Foxtail, Green [6, 16]: 85; Foxtail, Green plant response rating [6, 17]: 98; Plant response rating, Foxtail, Green [6, 18]: 0; Plant response rating, Foxtail, Green [6, 19]: 25; Foxtail, Green plant response rating [6, 20]: 65; Plant response rating, Crabgrass, Large [7, 13]: 100; Plant response rating, Crabgrass, Large [7, 14]: 80; Plant response rating, Crabgrass, Large [7, 15]: 85; Plant response rating, Crabgrass, Large [7, 16]: 100; Crabgrass, Large plant response rating [7, 17]: 100; Plant response rating, Crabgrass, Large [7, 18]: 60; Plant response rating, Crabgrass, Large [7, 19]: 100; Crabgrass, Large plant response rating [7, 20]: 100; Plant response rating, Cupgrass, Woolly [8, 13]: 75; Plant response rating, Cupgrass, Woolly [8, 14]: 55; Plant response rating, Cupgrass, Woolly [8, 15]: 75; Plant response rating, Cupgrass, Woolly [8, 16]: 90; Cupgrass, Woolly plant response rating [8, 17]: 95; Plant response rating, Cupgrass, Woolly [8, 18]: 0; Plant response rating, Cupgrass, Woolly [8, 19]: 0; Cupgrass, Woolly plant response rating [8, 20]: 15; Plant response rating, Velvetleaf [9, 13]: 100; Plant response rating, Velvetleaf [9, 14]: 80; Plant response rating, Velvetleaf [9, 15]: 95; Plant response rating, Velvetleaf [9, 16]: 100; Velvetleaf plant response rating [9, 17]: 100; Plant response rating, Velvetleaf [9, 18]: 100; Plant response rating, Velvetleaf [9, 19]: 100; Velvetleaf plant response rating [9, 20]: 100; Plant response rating, Bromegrass, Downy [10, 13]: 5; Plant response rating, Bromegrass, Downy [10, 14]: 20; Plant response rating, Bromegrass, Downy [10, 15]: 35; Plant response rating, Bromegrass, Downy [10, 16]: 45; Bromegrass, Downy plant response rating [10, 17]: 45; Plant response rating, Bromegrass, Downy [10, 18]: 0; Plant response rating, Bromegrass, Downy [10, 19]: 0; Bromegrass, Downy plant response rating [10, 20]: 0; Plant response rating, Kochia (kochia (Kochia scoparia); [13]): 100; Plant response rating, Kochia (kochia (Kochia scoparia); [14]): 25; Plant response rating, Kochia (kochia (Kochia scoparia); [15]): 25; Plant response rating, Kochia (kochia (Kochia scoparia); [16]): 75; Kochia plant response rating (kochia (Kochia scoparia); [17]): 98; Plant response rating, Kochia (kochia (Kochia scoparia); [18]): 15; Plant response rating, Kochia (kochia (Kochia scoparia); [19]): 100; Kochia plant response rating (kochia (Kochia scoparia); [20]): 100; Plant response rating, Foxtail, Giant [11, 13]: 100; Plant response rating, Foxtail, Giant [11, 14]: 75; Plant response rating, Foxtail, Giant [11, 15]: 85; Plant response rating, Foxtail, Giant [11, 16]: 98; Foxtail, Giant plant response rating [11, 17]: 100; Plant response rating, Foxtail, Giant [11, 18]: 0; Plant response rating, Foxtail, Giant [11, 19]: 35; Foxtail, Giant plant response rating [11, 20]: 75; Plant response rating, Johnsongrass [12, 13]: 98; Plant response rating, Johnsongrass [12, 14]: 65; Plant response rating, Johnsongrass [12, 15]: 70; Plant response rating, Johnsongrass [12, 16]: 90; Johnsongrass plant response rating [12, 17]: 98; Plant response rating, Johnsongrass [12, 18]: 0; Plant response rating, Johnsongrass [12, 19]: 55; Johnsongrass plant response rating [12, 20]: 85

How did the “Plant response rating, Wheat” value [1, 14] turn out when “5-[(2-hydroxy-6-oxo-1-cyclohexen-1-yl)carbonyl]-2,3-diphenyl-4(3H)-pyrimidinone [Compound 2]” was run?
Its value is 0.

What about the “Plant response rating, Wheat” value [1, 15] of the same substance?
The value was 0.

What about the “Plant response rating, Wheat” value [1, 16] of the same substance?
Its value is 0.

And the “Wheat plant response rating” value [1, 17]?
The value was 5.

And the “Wheat plant response rating (0 to 100 scale)” value [1, 21]?
The value was 0.

What about the “Plant response rating, Goosegrass” value [2, 14] of the same substance?
The value was 60.

And the “Plant response rating, Goosegrass” value [2, 15]?
Its value is 60.

And the “Plant response rating, Goosegrass” value [2, 16]?
The value was 65.

And the “Goosegrass plant response rating” value [2, 17]?
Its value is 80.

What about the “Plant response rating, Lambsquarters” value [3, 14] of the same substance?
The value was 70.

And the “Plant response rating, Lambsquarters” value [3, 15]?
Its value is 75.

And the “Plant response rating, Lambsquarters” value [3, 16]?
Its value is 90.

And the “Lambsquarters plant response rating” value [3, 17]?
Its value is 90.

And the “Plant response rating, Nutsedge, Yellow” value [4, 14]?
The value was 15.

What about the “Plant response rating, Nutsedge, Yellow” value [4, 15] of the same substance?
The value was 20.

And the “Plant response rating, Nutsedge, Yellow” value [4, 16]?
Its value is 20.

And the “Nutsedge, Yellow plant response rating” value [4, 17]?
The value was 45.

And the “Plant response rating, Pigweed” value [5, 14]?
Its value is 65.

What about the “Plant response rating, Pigweed” value [5, 15] of the same substance?
Its value is 80.

And the “Plant response rating, Pigweed” value [5, 16]?
Its value is 85.

What about the “Pigweed plant response rating” value [5, 17] of the same substance?
Its value is 90.

And the “Plant response rating, Foxtail, Green” value [6, 14]?
Its value is 5.

What about the “Plant response rating, Foxtail, Green” value [6, 15] of the same substance?
The value was 10.

What about the “Plant response rating, Foxtail, Green” value [6, 16] of the same substance?
The value was 30.

What about the “Foxtail, Green plant response rating” value [6, 17] of the same substance?
Its value is 40.

What about the “Plant response rating, Crabgrass, Large” value [7, 14] of the same substance?
The value was 40.

And the “Plant response rating, Crabgrass, Large” value [7, 15]?
The value was 50.

And the “Plant response rating, Crabgrass, Large” value [7, 16]?
Its value is 55.

What about the “Crabgrass, Large plant response rating” value [7, 17] of the same substance?
Its value is 65.

What about the “Plant response rating, Cupgrass, Woolly” value [8, 14] of the same substance?
The value was 0.

What about the “Plant response rating, Cupgrass, Woolly” value [8, 15] of the same substance?
Its value is 0.

What about the “Plant response rating, Cupgrass, Woolly” value [8, 16] of the same substance?
Its value is 0.

What about the “Cupgrass, Woolly plant response rating” value [8, 17] of the same substance?
Its value is 20.

What about the “Plant response rating, Velvetleaf” value [9, 14] of the same substance?
The value was 55.

And the “Plant response rating, Velvetleaf” value [9, 15]?
Its value is 75.

What about the “Plant response rating, Velvetleaf” value [9, 16] of the same substance?
Its value is 85.

What about the “Velvetleaf plant response rating” value [9, 17] of the same substance?
The value was 90.

What about the “Velvetleaf plant response rating (0 to 100 scale)” value [9, 21] of the same substance?
The value was 0.

And the “Plant response rating, Bromegrass, Downy” value [10, 14]?
The value was 0.

And the “Plant response rating, Bromegrass, Downy” value [10, 15]?
Its value is 0.

What about the “Plant response rating, Bromegrass, Downy” value [10, 16] of the same substance?
Its value is 0.

What about the “Bromegrass, Downy plant response rating” value [10, 17] of the same substance?
Its value is 10.

And the “Plant response rating, Kochia” value (kochia (Kochia scoparia); [14])?
The value was 15.

And the “Plant response rating, Kochia” value (kochia (Kochia scoparia); [15])?
Its value is 20.

And the “Plant response rating, Kochia” value (kochia (Kochia scoparia); [16])?
The value was 25.

What about the “Kochia plant response rating” value (kochia (Kochia scoparia); [17]) of the same substance?
Its value is 45.

What about the “Plant response rating, Foxtail, Giant” value [11, 14] of the same substance?
The value was 0.

And the “Plant response rating, Foxtail, Giant” value [11, 15]?
Its value is 15.

And the “Plant response rating, Foxtail, Giant” value [11, 16]?
Its value is 20.

What about the “Foxtail, Giant plant response rating” value [11, 17] of the same substance?
The value was 50.

And the “Plant response rating, Johnsongrass” value [12, 14]?
The value was 0.

What about the “Plant response rating, Johnsongrass” value [12, 15] of the same substance?
The value was 0.

And the “Plant response rating, Johnsongrass” value [12, 16]?
Its value is 0.

What about the “Johnsongrass plant response rating” value [12, 17] of the same substance?
The value was 20.

From patent US8952024B2, “Herbicidal pyrimidone derivatives” (E I du Pont de Nemours and Company, priority 2009, dated 2015)
